{"source": "paper PMC13070491", "about": "“Single-nucleus transcriptomics, pharmacokinetics, and pharmacodynamics of CDK4/6 and mTOR inhibition in a Phase 0/1 trial of recurrent high-grade glioma” (Neuro-Oncology, 2025)", "key": {"[1]": {"experiment": "Plasma pharmacokinetic parameters (LC-MS/MS)", "conditions": "plasma; for AUC(0-t) / Cmax / half-life / Tmax: human, oral; for AUC(0-t): Total Ribociclib AUClast; for Cmax: Total Ribociclib Cmax", "experimental": "Pharmacokinetic evaluation was conducted as previously described[8] using a validated liquid chromatography with tandem mass spectrometry (LC-MS/MS) method.[16] […] CSF samples were intraoperatively collected."}, "[2]": {"experiment": "Adverse events related to study treatment (CTCAE)", "type": "in vivo, human", "experimental": "Eligibility was determined based on previous clinical records, panel DNA sequencing, and IHC of archival tissue from a previous surgery (Figure 1, Supplementary Figure S2A)."}, "[3]": {"conditions": "Dose Level 4: ribociclib 600mg QD 5 days + everolimus 50mg single dose, CTCAE grade 1"}, "[4]": {"conditions": "Dose Level 5: ribociclib 600mg QD 5 days + everolimus 60mg single dose, CTCAE grade 2"}}, "note": "Values joined by “and” are separate entries in the source; they are usually repeats but may differ in a detail not shown here. Identical values can stand only once."}
{"smiles": "CN(C)C(=O)c1cc2cnc(Nc3ccc(N4CCNCC4)cn3)nc2n1C1CCCC1", "note": "[Ribociclib, ribociclib]", "values": [{"measurement": "AUC(0-t)", "setting": "[1]; 400 mg, Mean", "value": 18.5, "unit": "µM·h"}, {"measurement": "AUC(0-t)", "setting": "[1]; 400 mg, Median", "value": 13.8, "unit": "µM·h"}, {"measurement": "Cmax", "setting": "[1]; 400 mg, Median", "value": 1320, "unit": "nM"}, {"measurement": "half-life", "setting": "[1]; 400 mg, Total Ribociclib T1/2, plasma, Mean", "value": 13.1, "unit": "h"}, {"measurement": "half-life", "setting": "[1]; 400 mg, Total Ribociclib T1/2, plasma, Median", "value": 11.4, "unit": "h"}, {"measurement": "half-life", "setting": "[1]; 400 mg, Unbound Ribociclib T1/2, plasma, Mean", "value": 11.3, "unit": "h"}, {"measurement": "half-life", "setting": "[1]; 400 mg, Unbound Ribociclib T1/2, plasma, Median", "value": 11.2, "unit": "h"}, {"measurement": "half-life", "setting": "[1]; 400 mg, Unbound Ribociclib T1/2, plasma, individual patients", "value": 7.04, "unit": "h"}, {"measurement": "Tmax", "setting": "[1]; 400 mg, Unbound Ribociclib Tmax, Mean", "value": 2.65, "unit": "h"}, {"measurement": "AUC(0-t)", "setting": "[1]; 600 mg, Mean", "value": 28.4, "unit": "µM·h"}, {"measurement": "Cmax", "setting": "[1]; 600 mg, Mean", "value": 2190, "unit": "nM"}, {"measurement": "Cmax", "setting": "[1]; 600 mg, Median", "value": 1810, "unit": "nM"}, {"measurement": "half-life", "setting": "[1]; 600 mg, Total Ribociclib T1/2, plasma, Mean", "value": 17.3, "unit": "h"}, {"measurement": "Tmax", "setting": "[1]; 600 mg, Total Ribociclib Tmax, Mean", "value": 3.23, "unit": "h"}, {"measurement": "half-life", "setting": "[1]; 600 mg, Unbound Ribociclib T1/2, plasma, Median", "value": 11.5, "unit": "h"}, {"measurement": "Tmax", "setting": "[1]; 600 mg, Unbound Ribociclib Tmax, Mean", "value": 4.76, "unit": "h"}, {"measurement": "Total Ribociclib CL/F", "setting": "[1]; 400 mg, Mean", "value": 62.22, "unit": "L/h"}, {"measurement": "Total Ribociclib Tmax", "setting": "[1]; 400 mg, Mean", "value": 3.00, "unit": "h"}, {"measurement": "Unbound Ribociclib Cmax", "setting": "[1]; 400 mg, Mean", "value": 290, "unit": "nM"}, {"measurement": "Total Ribociclib CL/F", "setting": "[1]; 400 mg, Median", "value": 66.79, "unit": "L/h"}, {"measurement": "Unbound Ribociclib Cmax", "setting": "[1]; 400 mg, Median", "value": 230, "unit": "nM"}, {"measurement": "Total Ribociclib CL/F", "setting": "[1]; 400 mg, individual patients", "value": "65.30 L/h and 28.56 L/h and 68.28 L/h and 29.74 L/h and 83.61 L/h and 97.80 L/h"}, {"measurement": "Unbound Ribociclib Cmax", "setting": "[1]; 400 mg, individual patients", "value": "310 nM and 690 nM and 150 nM and 260 nM and 120 nM and 190 nM"}, {"measurement": "Unbound Ribociclib T1/2", "setting": "[1]; 400 mg, individual patients", "value": "15.62 h and 13.50 h and 9.01 h"}, {"measurement": "Total Ribociclib CL/F", "setting": "[1]; 600 mg, Mean", "value": 59.77, "unit": "L/h"}, {"measurement": "Unbound Ribociclib Cmax", "setting": "[1]; 600 mg, Mean", "value": 320, "unit": "nM"}, {"measurement": "Unbound Ribociclib T1/2", "setting": "[1]; 600 mg, Mean", "value": 15.49, "unit": "h"}, {"measurement": "Total Ribociclib CL/F", "setting": "[1]; 600 mg, Median", "value": 55.14, "unit": "L/h"}, {"measurement": "Unbound Ribociclib Cmax", "setting": "[1]; 600 mg, Median", "value": 280, "unit": "nM"}, {"measurement": "Total Ribociclib CL/F", "setting": "[1]; 600 mg, individual patients", "value": "22.31 L/h and 79.68 L/h and 49.86 L/h and 52.45 L/h and 57.05 L/h and 59.00 L/h and 104.11 L/h and 29.22 L/h and 48.20 L/h and 71.59 L/h and 35.82 L/h and 156.41 L/h and 47.05 L/h and 55.14 L/h and 66.74 L/h and 66.55 L/h and 50.38 L/h and 59.19 L/h and 24.80 L/h"}, {"measurement": "Total Ribociclib Tmax", "setting": "[1]; 600 mg, individual patients", "value": "3.98 h and 1.67 h and 4.00 h"}, {"measurement": "Unbound Ribociclib Cmax", "setting": "[1]; 600 mg, individual patients", "value": "580 nM and 280 nM and 370 nM and 290 nM and 260 nM and 340 nM and 310 nM and 730 nM and 300 nM and 220 nM and 380 nM and 90 nM and 210 nM and 180 nM and 240 nM and 230 nM and 470 nM"}, {"measurement": "Unbound Ribociclib T1/2", "setting": "[1]; 600 mg, individual patients", "value": "14.45 h and 9.00 h and 8.65 h and 15.15 h and 15.94 h and 42.32 h"}, {"measurement": "Dizziness, No. Patients Affected", "setting": "[2]; [3]", "value": 1}, {"measurement": "Photophobia, No. Patients Affected", "setting": "[2]; [3]", "value": 1}, {"measurement": "Platelet count decreased, No. Patients Affected", "setting": "[2]; Dose Level 5: ribociclib 600mg QD 5 days + everolimus 60mg single dose, CTCAE grade 1", "value": 1}, {"measurement": "Nausea, No. Patients Affected", "setting": "[2]; [4]", "value": 1}, {"measurement": "Pancytopenia (serious adverse event), No. Patients Affected", "setting": "[2]; [4]", "value": 1}, {"measurement": "Electrocardiogram QT prolonged, No. Patients Affected", "setting": "[2]; Dose Level 6: ribociclib 600mg QD 5 days + everolimus 70mg single dose, CTCAE grade 1", "value": 1}]}
